Where two headings read alike, the source gives them in different places. Where a SMILES comes first, the peptide text is derived from it. [ ]: non-standard residue; d: D form. The star is where a group is joined. Palmitoyl = CCCCCCCCCCCCCCCC(=O)*; βAla = NCCC(=O)O
Tests used:
IAV polymerase = test: cells; type: cell-based, influenza A virus; settings: read-out: IC50, influenza replicon activity
MERS-CoV pseudovirus = settings: 12 h
[1] = target: neuraminidase from influenza A/Hong Kong/8/68 (H3N2) (Influenza A virus, UniProt Q91MA2); type: biochemical
Chain of neuraminidase from influenza A/Hong Kong/8/68 (H3N2) (Q91MA2 whole entry, looked up): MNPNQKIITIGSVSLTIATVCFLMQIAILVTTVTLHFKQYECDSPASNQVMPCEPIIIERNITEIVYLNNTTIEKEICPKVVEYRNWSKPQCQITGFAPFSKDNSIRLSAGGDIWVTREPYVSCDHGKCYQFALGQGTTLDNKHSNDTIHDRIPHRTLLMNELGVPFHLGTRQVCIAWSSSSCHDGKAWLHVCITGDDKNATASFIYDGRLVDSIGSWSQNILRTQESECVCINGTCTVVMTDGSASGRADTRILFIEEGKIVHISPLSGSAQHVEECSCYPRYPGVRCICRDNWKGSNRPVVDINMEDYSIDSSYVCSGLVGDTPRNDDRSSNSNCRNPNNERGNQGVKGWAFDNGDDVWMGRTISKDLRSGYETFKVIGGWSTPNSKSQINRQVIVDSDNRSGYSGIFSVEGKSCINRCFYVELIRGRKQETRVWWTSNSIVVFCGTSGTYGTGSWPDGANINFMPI

TZM-b1 cell = settings: human, TZM-b1 cells
in vivo = settings: male, Sprague-Dawley, rat, iv, 5 mg/kg
N66 = N66 (Influenza A virus, UniProt P03437); type: binding, IAV H3 (X31); settings: pH 8.8
Chain of N66 (P03437 385-450 limits assumed): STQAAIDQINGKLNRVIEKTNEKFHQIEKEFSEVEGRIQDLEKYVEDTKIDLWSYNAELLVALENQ

IAV = type: cell-based, influenza A virus
HA2 subunit = HA2 subunit (Influenza A virus, UniProt P03452); set-up: species or system H1/PR8 virus; settings: pH 4.6
Chain of HA2 subunit (P03452 18-343 limits assumed): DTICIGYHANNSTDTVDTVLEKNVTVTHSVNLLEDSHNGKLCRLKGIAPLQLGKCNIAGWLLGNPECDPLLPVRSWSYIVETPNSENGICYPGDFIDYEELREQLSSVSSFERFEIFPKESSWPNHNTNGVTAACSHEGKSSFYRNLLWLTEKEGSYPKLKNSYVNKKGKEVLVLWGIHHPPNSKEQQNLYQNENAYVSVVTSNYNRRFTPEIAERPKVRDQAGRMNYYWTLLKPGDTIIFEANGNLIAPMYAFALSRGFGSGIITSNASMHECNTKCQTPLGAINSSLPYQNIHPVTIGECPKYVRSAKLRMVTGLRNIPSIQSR
Chain of HA2 subunit (P03452 345-565 limits assumed): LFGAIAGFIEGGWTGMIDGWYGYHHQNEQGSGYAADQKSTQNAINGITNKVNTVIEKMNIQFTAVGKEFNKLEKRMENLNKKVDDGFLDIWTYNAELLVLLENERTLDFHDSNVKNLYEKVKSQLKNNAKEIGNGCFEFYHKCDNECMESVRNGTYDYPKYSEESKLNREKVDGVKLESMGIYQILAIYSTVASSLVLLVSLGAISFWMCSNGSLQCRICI

[2] = target: neuraminidase from influenza A/Puerto Rico/8/1934 (H1N1) (Influenza A virus, UniProt P03468); type: biochemical
Chain of neuraminidase from influenza A/Puerto Rico/8/1934 (H1N1) (P03468 whole entry, looked up): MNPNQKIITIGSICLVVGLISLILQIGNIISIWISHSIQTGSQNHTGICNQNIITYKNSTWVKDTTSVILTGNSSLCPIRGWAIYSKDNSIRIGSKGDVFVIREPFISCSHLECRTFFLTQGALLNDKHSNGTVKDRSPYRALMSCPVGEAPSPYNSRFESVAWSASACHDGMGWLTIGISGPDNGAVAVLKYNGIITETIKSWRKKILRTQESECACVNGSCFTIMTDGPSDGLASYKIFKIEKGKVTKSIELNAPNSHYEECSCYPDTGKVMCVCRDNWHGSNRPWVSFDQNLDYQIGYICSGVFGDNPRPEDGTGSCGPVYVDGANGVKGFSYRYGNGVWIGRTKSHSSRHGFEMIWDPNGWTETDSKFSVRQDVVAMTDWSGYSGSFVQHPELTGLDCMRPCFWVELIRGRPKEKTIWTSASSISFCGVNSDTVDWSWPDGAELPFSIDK

[3] = target: HA1 subunit sialic acid-binding site (Influenza A virus, UniProt P03452); set-up: species or system influenza A/Puerto Rico/8/34 virus
Chain of HA1 subunit sialic acid-binding site (P03452 18-343 limits assumed): as the sequence (P03452 18-343 limits assumed) above
Chain of HA1 subunit sialic acid-binding site (P03452 345-565 limits assumed): as the sequence (P03452 345-565 limits assumed) above

SMILES: CCOC(=O)C1=C[C@@H](OC(CC)CC)[C@H](NC(C)=O)[C@@H](N)C1 [oseltamivir, reference compound]
- CC50, cytotoxicity of compounds on MDCK cells (MDCK cells): >100 µM
- IC50 (IAV polymerase; Influenza A virus, HEK-293T, 30 h): > 100 µM

SMILES: CCCCCCCCCCCCCCCC(=O)NCCCC[C@H](NC(=O)CCNC(=O)[C@H](CCCCN)NC(=O)[C@H](CCCCN)NC(=O)[C@H](CCC(N)=O)NC(=O)[C@@H](NC(=O)[C@H](CCC(=O)O)NC(=O)[C@H](CCC(=O)O)NC(=O)[C@@H](NC(=O)[C@H](CCCCN)NC(=O)[C@H](CCCCN)NC(=O)[C@H](CCC(N)=O)NC(=O)[C@@H](NC(=O)[C@H](CCC(=O)O)NC(=O)[C@H](CCC(=O)O)NC(=O)[C@@H](NC(=O)[C@H](CCCCN)NC(=O)[C@H](CCCCN)NC(=O)[C@H](CCC(N)=O)NC(=O)[C@@H](NC(=O)[C@H](CCC(=O)O)NC(=O)[C@H](CCC(=O)O)NC(=O)[C@@H](NC(=O)[C@H](CCCCN)NC(=O)[C@H](CCCCN)NC(=O)[C@H](CCC(N)=O)NC(=O)[C@@H](NC(=O)[C@H](CCC(=O)O)NC(=O)[C@H](CCC(=O)O)NC(=O)[C@@H](NC(=O)[C@H](CCCCN)NC(=O)[C@H](CCCCN)NC(=O)[C@H](CCC(N)=O)NC(=O)[C@@H](NC(=O)[C@H](CCC(=O)O)NC(=O)[C@H](CCC(=O)O)NC(=O)[C@@H](NC(C)=O)[C@@H](C)CC)[C@@H](C)CC)[C@@H](C)CC)[C@@H](C)CC)[C@@H](C)CC)[C@@H](C)CC)[C@@H](C)CC)[C@@H](C)CC)[C@@H](C)CC)[C@@H](C)CC)C(N)=O [IIQ] (Ac-IEEIQKKIEEIQKKIEEIQKKIEEIQKKIEEIQKK[βAla]K(Palmitoyl)-NH2)
- EC50 (MERS-CoV pseudovirus): 0.13 µM
- inhibition of neuraminidase of A/Hong Kong/8/68 (H3N2), in words [1]: neither IIQ nor favipiravir was able to disturb cleavage of the substrate
- CC50 on the TZM-b1 cell (TZM-b1 cell): > 100 µM
- level at 24 h (in vivo): > 100 ng/mL
- N-PAGE of equimolar mixture with N66 (N66): new bands at the upper positions in the gel
- antiviral activity in the remaining three time intervals (IAV): no antiviral activity
- reduction of viral load, interval 0–10 h (IAV): approximately 60%
- CC50, cytotoxicity of compounds on MDCK cells (MDCK cells; dog, MDCK cells, 72 h): >100 µM
- lysis of erythrocytes caused by HA2 under acidic condition (HA2 subunit): decreased compared with the hemolytic effect of virus only
- inhibition of neuraminidase of A/Puerto Rico/8/34 (H1N1), in words [2]: neither IIQ nor favipiravir was able to disturb cleavage of the substrate
- IC50 (IAV polymerase): > 100 µM
- inhibition of influenza virus-induced aggregation of chicken erythrocytes [3]: no apparent inhibition

SMILES: NC(=O)c1nc(F)cnc1O [favipiravir, reference compound]
- inhibition of neuraminidase of A/Hong Kong/8/68 (H3N2), in words [1]: neither IIQ nor favipiravir was able to disturb cleavage of the substrate
- antiviral effect at the interval of 5–8 h (IAV): continued to exert its full effect
- inhibition of neuraminidase of A/Puerto Rico/8/34 (H1N1), in words [2]: neither IIQ nor favipiravir was able to disturb cleavage of the substrate

— PMC7075651 (Journal of Medicinal Chemistry, 2018)
